{
  "source": "patent US12336991B2",
  "about": "“Factor XIIA inhibitors” (UNIVERSITY OF LEEDS, priority 2018, dated 2025)",
  "assay_type_in_all_cases": "biochemical",
  "key": {"[1]": {"molecular_target": "FXa (Homo sapiens, UniProt P00742)", "sequence (P00742 235-488 limits assumed)": "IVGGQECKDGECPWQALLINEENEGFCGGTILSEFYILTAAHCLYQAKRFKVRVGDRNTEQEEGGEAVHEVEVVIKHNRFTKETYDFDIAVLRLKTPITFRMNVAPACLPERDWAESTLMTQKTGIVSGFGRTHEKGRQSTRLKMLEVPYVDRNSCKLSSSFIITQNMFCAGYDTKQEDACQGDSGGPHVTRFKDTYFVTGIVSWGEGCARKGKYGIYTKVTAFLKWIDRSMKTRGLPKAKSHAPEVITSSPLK", "sequence (P00742 41-179 partner limits assumed)": "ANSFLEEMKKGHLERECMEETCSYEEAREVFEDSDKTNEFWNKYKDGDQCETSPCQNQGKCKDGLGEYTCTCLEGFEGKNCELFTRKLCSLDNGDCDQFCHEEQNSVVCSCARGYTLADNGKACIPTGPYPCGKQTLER", "experiment": "Determination of selectivity: FXa inhibition, chromogenic substrate S2765 assay", "conditions": "fold selectivity for FXIIa over FXa", "outline": "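Human FXa (5 nM) preincubated with compound (top 500 μM, 5% DMSO) 10 min at 37 °C in 50 mM Tris, 137 mM NaCl pH 7.4, then S2765 ([…]) added; A405 kinetics over 3 h at 37 °C. IC50 from initial rates, converted to Ki via Cheng-Prusoff.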"}, "[2]": {"molecular_target": "T1, FXIIa (Homo sapiens, UniProt P00748)", "T1 sequence (P00748 373-615 limits assumed)": "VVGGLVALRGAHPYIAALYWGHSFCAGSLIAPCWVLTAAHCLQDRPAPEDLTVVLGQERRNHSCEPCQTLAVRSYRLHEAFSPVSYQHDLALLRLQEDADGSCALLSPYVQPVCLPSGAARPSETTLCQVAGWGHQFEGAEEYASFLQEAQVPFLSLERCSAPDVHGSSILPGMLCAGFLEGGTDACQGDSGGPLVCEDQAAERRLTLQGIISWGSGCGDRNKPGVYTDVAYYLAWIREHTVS", "T1 sequence (P00748 20-372 partner limits assumed)": "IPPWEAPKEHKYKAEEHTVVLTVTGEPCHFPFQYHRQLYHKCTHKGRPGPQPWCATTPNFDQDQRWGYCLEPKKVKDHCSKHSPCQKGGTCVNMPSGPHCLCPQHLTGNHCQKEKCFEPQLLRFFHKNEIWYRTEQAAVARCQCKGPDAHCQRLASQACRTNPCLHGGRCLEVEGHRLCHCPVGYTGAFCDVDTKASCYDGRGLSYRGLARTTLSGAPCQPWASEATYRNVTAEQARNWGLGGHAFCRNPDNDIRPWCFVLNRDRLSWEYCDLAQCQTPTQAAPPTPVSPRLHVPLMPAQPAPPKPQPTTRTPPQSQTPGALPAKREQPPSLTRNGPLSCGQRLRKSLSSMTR", "experiment": "Determination of Factor XIIa inhibition, chromogenic substrate S-2302 assay", "conditions": "human FXIIa alpha", "outline": "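FXIIa (10 nM) preincubated with compound 10 min at 37° C. in 50 mM Tris, 137 mM NaCl pH 7.4, 5% DMSO, top concentration 500 μM, then S-2302 added ([…]). Absorbance at 405 nm read kinetically for 3 h; IC50 from initial rates, converted to Ki by Cheng-Prusoff.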"}, "[3]": {"molecular_target": "T2, thrombin (Homo sapiens, UniProt P00734)", "T2 construct": "FXa (5 nM) and thrombin (5 nM)", "experiment": "Determination of selectivity: thrombin inhibition, chromogenic substrate GPR assay", "conditions": "fold selectivity for FXIIa over thrombin", "outline": "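Thrombin (5 nM) preincubated with compound 10 min at 37 °C in 50 mM Tris, 137 mM NaCl, pH 7.4, 5% DMSO, then GPR substrate ([…]) added. Absorbance at 405 nm read kinetically for 3 h; IC50 from initial rates, converted to Ki via Ki=IC50/(1+[S]/Km).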"}},
  "data": [
    {"smiles": "Cn1nnc2cc(CNC(=O)[C@@H]3C[C@H](NC(=O)CCc4ccccc4)CN3C(=O)[C@H](N)CCc3ccccc3)ccc21", "note": "[Example M05195]", "values": [
      {"measurement": "FXa (human)/FXIIa alpha (human)", "setting": "[1]", "value": "∘∘"},
      {"measurement": "Ki", "setting": "[2]", "value": "> 2000", "unit": "nM"},
      {"measurement": "Thrombin (human)/FXIIa alpha (human)", "setting": "[3]", "value": "++ (fold selectivity value of 10 to 100)"}
    ]},
    {"smiles": "COc1ccc(C[C@@H]2C[C@@H](C(=O)NCc3ccc4c(c3)nnn4C)N(C(=O)C3NCCc4cc(Br)ccc43)C2)cc1", "note": "(stereo partly drawn) [Example M05471]", "values": [
      {"measurement": "FXa (human)/FXIIa alpha (human)", "setting": "[1]", "value": "∘∘"},
      {"measurement": "Ki", "setting": "[2]", "value": "> 2000", "unit": "nM"},
      {"measurement": "Thrombin (human)/FXIIa alpha (human)", "setting": "[3]", "value": "++ (fold selectivity value of 10 to 100)"}
    ]},
    {"smiles": "Cn1nnc2cc(CNC(=O)[C@@H]3C[C@@H](Cc4ccncc4)CN3C(=O)[C@@H](CCC(=O)N3CCCC3)NCC(F)F)ccc21", "note": "[Example M05269]", "values": [
      {"measurement": "FXa (human)/FXIIa alpha (human)", "setting": "[1]", "value": "∘∘"},
      {"measurement": "Ki", "setting": "[2]", "value": "> 2000", "unit": "nM"},
      {"measurement": "Thrombin (human)/FXIIa alpha (human)", "setting": "[3]", "value": "++ (fold selectivity value of 10 to 100)"}
    ]},
    {"smiles": "Cn1ncc2cc(CNC(=O)[C@@H]3C[C@@H](c4ccccc4)CN3C(=O)[C@H](N)CCc3ccccc3)ccc21", "note": "[Example M05188]", "values": [
      {"measurement": "FXa (human)/FXIIa alpha (human)", "setting": "[1]", "value": "∘∘"},
      {"measurement": "Ki", "setting": "[2]", "value": "> 2000", "unit": "nM"},
      {"measurement": "Thrombin (human)/FXIIa alpha (human)", "setting": "[3]", "value": "++ (fold selectivity value of 10 to 100)"}
    ]},
    {"smiles": "COc1ccc(C[C@@H]2C[C@@H](C(=O)NCc3ccc4c(c3)nnn4C)N(C(=O)[C@H](N)CCC(=O)N3CCNC[C@@H]3C)C2)cc1", "note": "[Example M05417, (2S,4R)-1-[(R)-2-amino-5-((S)-2-methyl-piperazin-1-yl)-5-oxo-pentanoyl]-4-(4-methoxy-benzyl)-pyrrolidine-2-carboxylic acid (1-methyl-1H-benzotriazol-5-ylmethyl)-amide]", "values": [
      {"measurement": "FXa (human)/FXIIa alpha (human)", "setting": "[1]", "value": "∘∘∘"},
      {"measurement": "Ki", "setting": "[2]", "value": "200 to 2000", "unit": "nM"},
      {"measurement": "Thrombin (human)/FXIIa alpha (human)", "setting": "[3]", "value": "+++ (fold selectivity values greater than 100)"}
    ]},
    {"smiles": "Cn1nnc2cc(CNC(=O)[C@@H]3C[C@@H](c4ccccc4)CN3C(=O)[C@H](N)CCc3ccccc3)ccc21", "note": "[Example M05119, (2S,4S)-1-((R)-2-Amino-4-phenyl-butyryl)-4-phenyl-pyrrolidine-2-carboxylic acid (1-methyl-1H-benzotriazol-5-ylmethyl)-amide]", "values": [
      {"measurement": "FXa (human)/FXIIa alpha (human)", "setting": "[1]", "value": "∘∘"},
      {"measurement": "Ki", "setting": "[2]", "value": "> 2000", "unit": "nM"},
      {"measurement": "Thrombin (human)/FXIIa alpha (human)", "setting": "[3]", "value": "++ (fold selectivity value of 10 to 100)"}
    ]},
    {"smiles": "Cn1nnc2cc(CNC(=O)[C@@H]3CC(Cc4ccnc(C(F)(F)F)c4)CN3C(=O)[C@H](N)CCC(=O)N3CCCC3)ccc21", "note": "(stereo partly drawn) [Example M05303]", "values": [
      {"measurement": "FXa (human)/FXIIa alpha (human)", "setting": "[1]", "value": "∘∘∘"},
      {"measurement": "Ki", "setting": "[2]", "value": "200 to 2000", "unit": "nM"},
      {"measurement": "Thrombin (human)/FXIIa alpha (human)", "setting": "[3]", "value": "++ (fold selectivity value of 10 to 100)"}
    ]},
    {"smiles": "COc1ccc(C[C@@H]2C[C@@H](C(=O)NCc3ccc4c(c3)nnn4C)N(C(=O)[C@H](N)CCC(=O)N3[C@H]4CC[C@@H]3CC4)C2)cc1", "note": "[Example M05394]", "values": [
      {"measurement": "FXa (human)/FXIIa alpha (human)", "setting": "[1]", "value": "∘∘∘"},
      {"measurement": "Ki", "setting": "[2]", "value": "200 to 2000", "unit": "nM"},
      {"measurement": "Thrombin (human)/FXIIa alpha (human)", "setting": "[3]", "value": "+++ (fold selectivity values greater than 100)"}
    ]},
    {"smiles": "CNC(=O)N[C@H]1C[C@@H](C(=O)NCc2ccc3c(c2)nnn3C)N(C(=O)[C@H](N)CCc2ccccc2)C1", "note": "[Example M05208]", "values": [
      {"measurement": "FXa (human)/FXIIa alpha (human)", "setting": "[1]", "value": "∘∘"},
      {"measurement": "Ki", "setting": "[2]", "value": "> 2000", "unit": "nM"},
      {"measurement": "Thrombin (human)/FXIIa alpha (human)", "setting": "[3]", "value": "++ (fold selectivity value of 10 to 100)"}
    ]},
    {"smiles": "Cn1nnc2cc(CNC(=O)[C@@H]3CC(Cc4ccc(C#N)cc4)CN3C(=O)[C@H](N)CCC(=O)N3CCCC3)ccc21", "note": "(stereo partly drawn) [Example M05312]", "values": [
      {"measurement": "FXa (human)/FXIIa alpha (human)", "setting": "[1]", "value": "∘∘∘"},
      {"measurement": "Ki", "setting": "[2]", "value": "200 to 2000", "unit": "nM"},
      {"measurement": "Thrombin (human)/FXIIa alpha (human)", "setting": "[3]", "value": "+++ (fold selectivity values greater than 100)"}
    ]},
    {"smiles": "Cn1nnc2cc(CNC(=O)[C@@H]3CCCN3C(=O)[C@H](N)CCC(=O)N3CCCC3)ccc21", "note": "[Example M05308]", "values": [
      {"measurement": "FXa (human)/FXIIa alpha (human)", "setting": "[1]", "value": "∘∘"},
      {"measurement": "Ki", "setting": "[2]", "value": "> 2000", "unit": "nM"},
      {"measurement": "Thrombin (human)/FXIIa alpha (human)", "setting": "[3]", "value": "++ (fold selectivity value of 10 to 100)"}
    ]}
  ]
}
